Source: PubChem BioAssay (NCI)
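Interpolation was linear, between the two tested concentrations surrounding the appropriate level; five concentrations were tested over 48 hours in 96-well plates. GI50 = concentration required for 50% inhibition of growth. TGI: concentration producing complete growth inhibition.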

What was measured:
Experiment in all cases: NCI tumour cell line growth inhibition, 48 h
LOX IMVI melanoma = test system: LOX IMVI melanoma
HT29 colon = test system: HT29 colon
HCC-2998 colon = test system: HCC-2998 colon
UACC-62 melanoma = test system: UACC-62 melanoma
DU-145 prostate = test system: DU-145 prostate
NCI-H460 lung = test system: NCI-H460 lung
MALME-3M melanoma = test system: MALME-3M melanoma
NCI-H23 lung = test system: NCI-H23 lung
SF-268 CNS = test system: SF-268 CNS
TK-10 renal = test system: TK-10 renal

| SMILES | GI50 (LOX IMVI melanoma) [µM] | TGI (LOX IMVI melanoma) [µM] | GI50 (HT29 colon) [µM] | TGI (HT29 colon) [µM] | GI50 (HCC-2998 colon) [µM] | TGI (HCC-2998 colon) [µM] | GI50 (UACC-62 melanoma) [µM] | TGI (UACC-62 melanoma) [µM] | GI50 (DU-145 prostate) [µM] | TGI (DU-145 prostate) [µM] | GI50 (NCI-H460 lung) [µM] | TGI (NCI-H460 lung) [µM] | GI50 (MALME-3M melanoma) [µM] | TGI (MALME-3M melanoma) [µM] | GI50 (NCI-H23 lung) [µM] | TGI (NCI-H23 lung) [µM] | GI50 (SF-268 CNS) [µM] | TGI (SF-268 CNS) [µM] | GI50 (TK-10 renal) [µM] | TGI (TK-10 renal) [µM] |
| --- | --- | --- | --- | --- | --- | --- | --- | --- | --- | --- | --- | --- | --- | --- | --- | --- | --- | --- | --- | --- |
| CN1CCN(C(=S)SCN2C(=O)c3ccccc3S2(=O)=O)CC1 | 11.6 | 36.9 | 4.24 | 18 | 30.9 | 85.3 | 18.8 | 54.1 | 26.4 | > 100 | 17.8 | 96.1 | 23.1 | 95.8 | 35.1 | > 100 | 37.4 | > 100 | 43.4 | > 100 |
| O=[N+]([O-])c1cccc(-c2ncc(-c3ccc(Cl)cc3Cl)[nH]2)c1 | 3.35 | 8.55 | 1.88 | 4.79 | 7.36 | 16.4 | 7.63 | 20.6 | 4.46 | 10.5 | 7.26 | 30.2 | 3.69 | 8.84 | 10.6 | 43.7 | 2.92 | 9.57 | 3.3 | 13.1 |
| COc1cc(C(=O)/C=C/c2c(C(F)(F)F)nc3sccn23)cc(OC)c1OC | 1.36 | 2.89 | 1.83 | 4.08 | 1.71 | 3.13 | 1.52 | 2.95 | 1.41 | 2.86 | 1.65 | 3.94 | 1.59 | 3.67 | 1.72 | 3.89 | 1.74 | 3.57 | 2.3 | 5.12 |
| N#Cc1ccc(N2Cc3cc(Cl)ccc3OC3=C2C(=O)N(Cc2ccccc2)C3=O)cc1 | 1.47 | 2.85 | 1.58 | 3.96 | 1.89 | 3.65 | 1.26 | 2.86 | 1.48 | 2.82 | 2.09 | 4.52 | 1.44 | 3.08 | 2.14 | 5.34 | 1.75 | 3.89 | 1.45 | 2.77 |
| CCCCCCCCCCCCCCCCCC1=NC(C)(C)CN1CCO | 1.54 | 2.87 | 1.37 | 2.66 | 1.71 | 3.11 | 1.68 | 3.18 | 1.81 | 3.27 | 1.97 | 3.65 | 2.18 | 5.6 | 1.71 | 3.33 | 1.8 | 3.27 | 1.73 | 3.31 |
| O=C(CN=Cc1cccs1)CSC(c1ccccc1)c1ccccc1 | 25.8 | 82.2 | 27.7 | 99.2 | 29.3 | 93.3 | 16.2 | 36.9 | 34 | > 100 | 24.8 | 70.1 | 19.6 | 49.4 | 29.2 | > 100 | 50.1 | > 100 | 30.5 | > 100 |
| CN(C)c1ccc(Sc2ccc3nc(N)nc(N)c3c2)cc1 | 0.3 | 13.6 | 0.453 | 12 | 0.848 | 4.84 | 0.519 | 5.78 | 0.793 | 12.1 | 0.174 | 2.71 | 1.09 | 2.87 | 0.665 | 18 | 0.604 | 14.3 | 4.11 | 15.5 |
| CC(C)(C)c1ccc(S(=O)(=O)N[C@H]2CC[C@H]3[C@@H]4CCc5cc(O)ccc5[C@H]4CC[C@]23C)cc1 | 1.77 | 3.17 | 1.96 | 3.74 | 2.8 | 7.1 | 2.16 | 5.91 | 3.93 | 12.9 | 1.98 | 4.16 | 2.78 | 7.13 | 2.03 | 4.28 | 3.94 | 14 | 3.79 | 12.1 |
| C[C@H](NC(=O)CCC(F)(F)F)C(=O)N[C@@H]1C(=O)N(CCO)c2ncccc2-c2ccccc21 | > 100 | > 100 | > 100 | > 100 | > 100 | > 100 | > 100 | > 100 | > 100 | > 100 | > 100 | > 100 | > 100 | > 100 | > 100 | > 100 | > 100 | > 100 | > 100 | > 100 |
| COc1ccc(N=C2NN=C(c3c[nH]c4ccccc34)CS2)cc1OC | 6.1 | > 100 | 4.01 | > 43.6 | 9.57 | > 48.3 | 4.81 | > 100 | 19.5 | > 87.7 | 4.11 | > 45.2 | 15 | > 69.1 | 13.5 | > 93.2 | 8.65 | > 100 | 38 | > 100 |
| COc1cc2c(cc1OC)[C@H]1C(=O)c3cc4c(cc3[C@H]1N(C)C2=O)OCO4 | – | > 40.8 | – | > 100 | – | > 100 | – | > 100 | – | > 100 | – | > 100 | – | > 89.5 | – | > 74.1 | – | > 100 | – | > 100 |
